Earlier results as cited in patent publication US12202853B2, “Epoxide polyene amphoteric macrolide and process for purifying natamycin” (DSM IP ASSETS B.V., priority 2018, dated 2025).
Read-outs that look alike come from different tables or passages of the source.

Natamycin
solubility of natamycin in water (neutral pH): around 40 mg/L
solubility of natamycin in water (neutral pH values, also printed as 40 ppm): around 0.04 g/L
